Measured values taken from paper PMC10165273, “Itch receptor MRGPRX4 interacts with the receptor activity–modifying proteins” (The Journal of Biological Chemistry, 2023).
Values joined by “and” are separate entries in the source; they are usually repeats but may differ in a detail not shown here. Equal values may be shown once. Read-outs that look alike come from different tables or passages of the source.

Target: T1, MRGPRX4 + RAMP3 (Homo sapiens, UniProt Q96LA9)
T1 construct: expressed in transfected cells; host or cells: HEK293T
T1 sequence (Q96LA9 whole entry): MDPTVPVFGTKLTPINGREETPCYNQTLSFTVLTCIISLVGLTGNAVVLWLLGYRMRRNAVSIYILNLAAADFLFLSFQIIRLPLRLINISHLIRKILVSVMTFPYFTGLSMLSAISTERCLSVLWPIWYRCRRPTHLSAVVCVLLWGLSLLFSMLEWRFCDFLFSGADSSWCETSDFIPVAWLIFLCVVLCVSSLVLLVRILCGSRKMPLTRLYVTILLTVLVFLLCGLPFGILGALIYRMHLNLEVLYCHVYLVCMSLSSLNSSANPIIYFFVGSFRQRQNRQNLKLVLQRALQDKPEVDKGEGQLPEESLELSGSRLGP
Assay: IP1 accumulation, MRGPRX4 coexpressed with RAMP3
Type: cell-based
Design: key to IP1 Basal / response to agonist, X4:ramp3.I:0.25 / response to agonist, X4:ramp3.I:0.5 / response to agonist, X4:ramp3.I:1: % IP1; unstimulated mock = 0%, fully stimulated MRGPRX4 = 100%
Details: for activation at 100 µM / activation at 20 µM / activation at 4 µM / activation at 0.8 µM / activation at […] / activation at 0.032 µM: 2 h
Procedure: HEK293T cells were transfected with 1 pg/cell of MRGPRX4 DNA, and the amount of DNA was kept constant at 2 pg/cell with pcDNA3.1(+) empty vector, unless otherwise specified. Twenty four hours after transfection, IP1 assay was performed as previously described ([51]). When applicable, cells were treated with 1 μM YM254890 (YM) or different concentrations of U73122 for 1 h prior to addition of agonist or buffer. After incubation for 2 h, HTRF reagents and IP1 calibration standards were added and incubated for 2 h in the dark at room temperature. Time-resolved fluorescence signals were read on the BioTek Synergy NEO-TRF Hybrid multi-mode reader (BioTek Instruments). All data were carried out in three independent experiments with three technical replicate each.
For RAMP DNA titration assay, HEK293T cells were cotransfected with a constant amount of 1 pg/cell of FLAG-MRGPRX4-GFP10-1D4 to which a serial dilution of 1, 0.75, 0.5, 0.25, or 0 pg/cell of each HA-RAMP-OLLAS was added. For a homogenous transfection of MRGPRX4, a master mix of MRGPRX4 DNA was made prior to addition of the RAMP DNA. […]
Data reduction, standard calibration, and transformation of HTRF data were performed as previously described ([51]). Normalized IP1 values were calculated relative to the unstimulated mock-transfected cells (set to 0%) and fully stimulated MRGPRX4 (alone if applicable) (set to 100%).

[1] = MRGPRX4 + RAMP3 0.25 pg (Fig. S3), normalized per agonist
[2] = MRGPRX4 + RAMP3 0.5 pg (Fig. S3), normalized per agonist
[3] = MRGPRX4 + RAMP3 1 pg (Fig. S3), normalized per agonist
[4] = MRGPRX4 + RAMP3 2 pg (Fig. S3), normalized per agonist
[5] = Tet-On MRGPRX4:RAMP3 Ratio 1:0.5 (Fig. S5F)
[6] = Tet-On MRGPRX4:RAMP3 Ratio 1:0.75 (Fig. S5F)
[7] = Tet-On MRGPRX4:RAMP3 Ratio 1:1 (Fig. S5F)

## CC(C)[C@H]1CC[C@H](C(=O)N[C@H](Cc2ccccc2)C(=O)O)CC1 [Nateglinide]
Log [nateglinide] (M) -4, MRGPRX4+RAMP3 0.75pg 1:0.75, Supplementary Figure 5f, read-out: IP1 accumulation (normalized)
  activation at 100 µM: 80.5%
Log [nateglinide] (M) -4.69897, MRGPRX4+RAMP3 0.75pg 1:0.75, Supplementary Figure 5f, read-out: IP1 accumulation (normalized)
  activation at 20 µM: 75.4%
Log [nateglinide] (M) -5.39794, MRGPRX4+RAMP3 0.5pg 1:0.5, Supplementary Figure 5f, read-out: IP1 accumulation (normalized)
  activation at 4 µM: 44.2%
Log [nateglinide] (M) -5.39794, MRGPRX4+RAMP3 0.75pg 1:0.75, Supplementary Figure 5f, read-out: IP1 accumulation (normalized)
  activation at 4 µM: 36.8%
Log [nateglinide] (M) -6.09691, MRGPRX4+RAMP3 0.5pg 1:0.5, Supplementary Figure 5f, read-out: IP1 accumulation (normalized)
  activation at 0.8 µM: 21.5%
Log [nateglinide] (M) -6.09691, MRGPRX4+RAMP3 0.75pg 1:0.75, Supplementary Figure 5f, read-out: IP1 accumulation (normalized)
  activation at 0.8 µM: 14.8%
Log [nateglinide] (M) -6.09691, MRGPRX4+RAMP3 1pg 1:1, Supplementary Figure 5f, 5g, read-out: IP1 accumulation (normalized)
  activation at 0.8 µM: 20.8%
Log [nateglinide] (M) -6.79588, MRGPRX4+RAMP3 0.5pg 1:0.5, Supplementary Figure 5f, read-out: IP1 accumulation (normalized)
  activation at […]: 13.1%
Log [nateglinide] (M) -6.79588, MRGPRX4+RAMP3 0.75pg 1:0.75, Supplementary Figure 5f, read-out: IP1 accumulation (normalized)
  activation at […]: 12%
Log [nateglinide] (M) -7.49485, MRGPRX4+RAMP3 0.5pg 1:0.5, Supplementary Figure 5f, read-out: IP1 accumulation (normalized)
  activation at 0.032 µM: 12.9%
Log [nateglinide] (M) -7.49485, MRGPRX4+RAMP3 0.75pg 1:0.75, Supplementary Figure 5f, read-out: IP1 accumulation (normalized)
  activation at 0.032 µM: 9.2%
Log [nateglinide] (M) -7.49485, MRGPRX4+RAMP3 1pg 1:1, Supplementary Figure 5f, 5g, read-out: IP1 accumulation (normalized)
  activation at 0.032 µM: 13.1%
Ratio MRGPRX4:RAMP3 1:0.25, log [Nateglinide] (M) -4, Fig S3c, read-out: IP1 accumulation
  activation at 100 µM: 75.8%
Ratio MRGPRX4:RAMP3 1:0.25, log [Nateglinide] (M) -4.69897, Fig S3c, read-out: IP1 accumulation
  activation at 20 µM: 68.5%
Ratio MRGPRX4:RAMP3 1:0.25, log [Nateglinide] (M) -5.39794, Fig S3c, read-out: IP1 accumulation
  activation at 4 µM: 41%
Ratio MRGPRX4:RAMP3 1:0.25, log [Nateglinide] (M) -6.09691, Fig S3c, read-out: IP1 accumulation
  activation at 0.8 µM: 25.1%
Ratio MRGPRX4:RAMP3 1:0.25, log [Nateglinide] (M) -6.79588, Fig S3c, read-out: IP1 accumulation
  activation at […]: 23.1%
Ratio MRGPRX4:RAMP3 1:0.25, log [Nateglinide] (M) -7.49485, Fig S3c, read-out: IP1 accumulation
  activation at 0.032 µM: 21%
Ratio MRGPRX4:RAMP3 1:0.5, log [Nateglinide] (M) -4, Fig S3c, read-out: IP1 accumulation
  activation at 100 µM: 91%
Ratio MRGPRX4:RAMP3 1:0.5, log [Nateglinide] (M) -4.69897, Fig S3c, read-out: IP1 accumulation
  activation at 20 µM: 74.7%
Ratio MRGPRX4:RAMP3 1:0.5, log [Nateglinide] (M) -5.39794, Fig S3c, read-out: IP1 accumulation
  activation at 4 µM: 39.2%
Ratio MRGPRX4:RAMP3 1:0.5, log [Nateglinide] (M) -6.09691, Fig S3c, read-out: IP1 accumulation
  activation at 0.8 µM: 21.5%
Ratio MRGPRX4:RAMP3 1:0.5, log [Nateglinide] (M) -6.79588, Fig S3c, read-out: IP1 accumulation
  activation at […]: 16.2%
Ratio MRGPRX4:RAMP3 1:0.5, log [Nateglinide] (M) -7.49485, Fig S3c, read-out: IP1 accumulation
  activation at 0.032 µM: 16.8%
Ratio MRGPRX4:RAMP3 1:1, log [Nateglinide] (M) -4, Fig S3c, read-out: IP1 accumulation
  activation at 100 µM: 86.2%
Ratio MRGPRX4:RAMP3 1:1, log [Nateglinide] (M) -4.69897, Fig S3c, read-out: IP1 accumulation
  activation at 20 µM: 67.6%
Ratio MRGPRX4:RAMP3 1:1, log [Nateglinide] (M) -5.39794, Fig S3c, read-out: IP1 accumulation
  activation at 4 µM: 32.5%
Ratio MRGPRX4:RAMP3 1:1, log [Nateglinide] (M) -6.09691, Fig S3c, read-out: IP1 accumulation
  activation at 0.8 µM: 18.7%
Ratio MRGPRX4:RAMP3 1:1, log [Nateglinide] (M) -6.79588, Fig S3c, read-out: IP1 accumulation
  activation at […]: 15.5%
Ratio MRGPRX4:RAMP3 1:1, log [Nateglinide] (M) -7.49485, Fig S3c, read-out: IP1 accumulation
  activation at 0.032 µM: 13.9%
Ratio MRGPRX4:RAMP3 1:2, log [Nateglinide] (M) -4, Fig S3c, read-out: IP1 accumulation
  activation at 100 µM: 83.7%
Ratio MRGPRX4:RAMP3 1:2, log [Nateglinide] (M) -5.39794, Fig S3c, read-out: IP1 accumulation
  activation at 4 µM: 28.1%
Ratio MRGPRX4:RAMP3 1:2, log [Nateglinide] (M) -6.09691, Fig S3c, read-out: IP1 accumulation
  activation at 0.8 µM: 16.1%
Ratio MRGPRX4:RAMP3 1:2, log [Nateglinide] (M) -6.79588, Fig S3c, read-out: IP1 accumulation
  activation at […]: 14.2%
Ratio MRGPRX4:RAMP3 1:2, log [Nateglinide] (M) -7.49485, Fig S3c, read-out: IP1 accumulation
  activation at 0.032 µM: 12.5%
Figure 4a bottom, DNA ratio MRGPRX4:RAMP3 1:0.5, MRGPRX4 alone = 100, read-out: efficacy
  Emax: 86.9%
Figure 4a top, DNA ratio MRGPRX4:RAMP3 1:0.25, individual replicates, read-out: potency (converted)
  EC50: 11.8 µM and 9.51 µM and 7.13 µM
Figure 4a top, DNA ratio MRGPRX4:RAMP3 1:0.5, individual replicates, read-out: potency (converted)
  EC50: 11.4 µM and 8.91 µM and 11.9 µM
Figure 4a top, DNA ratio MRGPRX4:RAMP3 1:0.75, individual replicates, read-out: potency (converted)
  EC50: 11.6 µM and 10 µM and 5.04 µM
Figure 4a top, DNA ratio MRGPRX4:RAMP3 1:1, individual replicates, read-out: potency (converted)
  EC50: 11 µM and 13.4 µM and 7.31 µM
Figure 4c-f, agonist 100µM, X4:ramp3 1:0.25, MRGPRX4 = 100
  response to agonist, X4:ramp3.I:0.25: 78.1524 and 81.0936
Figure 4c-f, agonist 100µM, X4:ramp3 1:0.5, MRGPRX4 = 100
  response to agonist, X4:ramp3.I:0.5: 74.9289 and 71.6542
Figure 4c-f, agonist 100µM, X4:ramp3 1:1, MRGPRX4 = 100
  response to agonist, X4:ramp3.I:1: 57.9146 and 58.6922
[1]
  IP1 Basal: 18.35
  IP1 span (top minus basal of the concentration-response fit): 72%
MRGPRX4 + RAMP3 0.25 pg (Fig. S3), normalized per agonist, read-out: IP1 EC50
  EC50: 7.44 µM
MRGPRX4 + RAMP3 0.25 pg (Fig. S3), normalized per agonist, read-out: IP1 Emax
  Emax: 90.3%
[2]
  IP1 Basal: 17.78
  IP1 span (top minus basal of the concentration-response fit): 70.5%
MRGPRX4 + RAMP3 0.5 pg (Fig. S3), normalized per agonist, read-out: IP1 EC50
  EC50: 10.6 µM
MRGPRX4 + RAMP3 0.5 pg (Fig. S3), normalized per agonist, read-out: IP1 Emax
  Emax: 88.3%
[3]
  IP1 Basal: 13.65
  IP1 span (top minus basal of the concentration-response fit): 76.8%
MRGPRX4 + RAMP3 1 pg (Fig. S3), normalized per agonist, read-out: IP1 EC50
  EC50: 12 µM
MRGPRX4 + RAMP3 1 pg (Fig. S3), normalized per agonist, read-out: IP1 Emax
  Emax: 90.4%
[4]
  IP1 Basal: 11.70
  IP1 span (top minus basal of the concentration-response fit): 79.7%
MRGPRX4 + RAMP3 2 pg (Fig. S3), normalized per agonist, read-out: IP1 EC50
  EC50: 14.5 µM
MRGPRX4 + RAMP3 2 pg (Fig. S3), normalized per agonist, read-out: IP1 Emax
  Emax: 91.3%
[5]
  IP1 Basal: 10.08
  IP1 span (top minus basal of the concentration-response fit): 83.3%
Tet-On MRGPRX4:RAMP3 Ratio 1:0.5 (Fig. S5F), read-out: IP1 EC50
  EC50: 7.17 µM
Tet-On MRGPRX4:RAMP3 Ratio 1:0.5 (Fig. S5F), read-out: IP1 Emax
  Emax: 93.4%
[6]
  IP1 Basal: 8.392
  IP1 span (top minus basal of the concentration-response fit): 72.2%
Tet-On MRGPRX4:RAMP3 Ratio 1:0.75 (Fig. S5F), read-out: IP1 EC50
  EC50: 7.11 µM
Tet-On MRGPRX4:RAMP3 Ratio 1:0.75 (Fig. S5F), read-out: IP1 Emax
  Emax: 80.5%
[7]
  IP1 Basal: 9.885
  IP1 span (top minus basal of the concentration-response fit): 71.3%
Tet-On MRGPRX4:RAMP3 Ratio 1:1 (Fig. S5F), read-out: IP1 EC50
  EC50: 8.79 µM
Tet-On MRGPRX4:RAMP3 Ratio 1:1 (Fig. S5F), read-out: IP1 Emax
  Emax: 81.2%
Log [nateglinide] (M) -4, MRGPRX4+RAMP3 1pg 1:1, Supplementary Figure 5f, 5g
  IP1 accumulation (normalized): 57.5355 and 90.9736 and 62.9483
Log [nateglinide] (M) -4.69897, MRGPRX4+RAMP3 1pg 1:1, Supplementary Figure 5f, 5g
  IP1 accumulation (normalized): 50.3774 and 62.0079 and 49.4001
Log [nateglinide] (M) -5.39794, MRGPRX4+RAMP3 1pg 1:1, Supplementary Figure 5f, 5g
  IP1 accumulation (normalized): 23.5136 and 36.2384 and 24.8216
Log [nateglinide] (M) -6.09691, MRGPRX4+RAMP3 1pg 1:1, Supplementary Figure 5f, 5g
  IP1 accumulation (normalized): 12.0843 and 16.5706 and 10.8044
Log [nateglinide] (M) -7.49485, MRGPRX4+RAMP3 1pg 1:1, Supplementary Figure 5f, 5g
  IP1 accumulation (normalized): 6.988 and 11.3646 and 7.305
